According to PubChem BioAssay (NCI):
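How tested: cells in 96-well plates exposed to compound for 48 hours at five concentrations. At the GI50, growth is halved. TGI: concentration producing complete growth inhibition.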

Columns and labels:
Assay in all cases: growth of human tumour cells (NCI), 48 h
[1] = test system: HL-60(TB) leukemia
[2] = test system: K-562 leukemia
[3] = test system: HCC-2998 colon
[4] = test system: A549 NSCLC
[5] = test system: SW-620 colon
[6] = test system: OVCAR-5 ovarian
[7] = test system: SN12C renal
[8] = test system: NCI-H460 lung
[9] = test system: M14 melanoma
[10] = test system: NCI/ADR-RES ovarian

SMILES	TGI [1]	TGI [2]	TGI [3]	TGI [4]	TGI [5]	TGI [6]	TGI [7]	TGI [8]	TGI [9]	GI50 [10]	TGI [10]	GI50 [2]	GI50 [3]	GI50 [4]	GI50 [5]	GI50 [6]	GI50 [7]	GI50 [9]	GI50 [8]	GI50 [1]
Cn1c2ccccc2c2ncc3[nH]c4ccccc4c3c21	41.3 µM	95.5 µM	> 100 µM	49.6 µM	71 µM	47.8 µM	73.2 µM	32.2 µM	35.2 µM											
CCCCCCCN=C(N)c1ccc(N2CCN(c3ccc(C(N)=NCCCCCCC)cc3)CC2)cc1		> 9.41 µM	0.163 µM	15 µM	> 31.7 µM	29.3 µM	14.7 µM	> 80.8 µM	> 100 µM	1.38 µM	> 57.7 µM	0.147 µM	0.0231 µM	0.26 µM	0.259 µM	0.849 µM	1.08 µM	7.29 µM		
COC(=O)c1ccc(-c2c(C#N)[n+](=O)c3cc(Cl)c(Cl)cc3n2[O-])cc1		21.8 µM	37.7 µM	> 100 µM	45.4 µM	39.4 µM	29.3 µM	44.7 µM	34.1 µM	23.2 µM	75.6 µM	5.54 µM	16.9 µM	47.4 µM	17.8 µM	19.2 µM	14.7 µM	16.2 µM	18.6 µM	
COc1cccc2c1C(=O)c1c(O)c3c(c(O)c1C2=O)C[C@@](O)(/C(C)=N/NC(=O)c1ccc(Cl)cc1)C[C@@H]3OC1CC(N)C(O)C(C)O1 (stereo partly drawn)				1.85 µM		3.81 µM	3 µM			4.6 µM	44.3 µM			0.124 µM		0.379 µM	0.156 µM			
Cc1cc(N(CCCNc2ccnc3cc(Cl)ccc23)Cc2ccc3c(c2)OCO3)nc(N2CCOCC2)n1		10 µM	13.1 µM		38.2 µM	22.3 µM	14.4 µM	14.1 µM		0.692 µM	23 µM	0.328 µM	0.329 µM		0.306 µM	0.29 µM	0.292 µM		0.318 µM	
CCN(CC)CCSc1c2ccccc2nc2c(OC)ccc(OC)c12	17.7 µM	> 24.5 µM	> 36 µM	50.1 µM		48.2 µM	> 39.3 µM	36.4 µM	15.4 µM											
Oc1ccc(Nc2c3ccccc3nc3occ(Cl)c23)cc1		53.1 µM		32.2 µM	> 100 µM	> 100 µM	26.4 µM	28.9 µM	26.8 µM	2.69 µM	18.2 µM	2.24 µM		3.3 µM	4.71 µM	19 µM	2.89 µM	3.79 µM	3.68 µM	
COc1ccc(Cn2c(N)c(S(=O)(=O)c3ccc(Cl)cc3)c3nc(C#N)c(C#N)nc32)cc1	> 50 µM	> 50 µM		> 50 µM	> 50 µM	> 50 µM	17.9 µM	> 50 µM	> 50 µM	1.15 µM	6 µM	> 50 µM		18.2 µM	> 50 µM	12.2 µM	1.45 µM	24.8 µM	2.94 µM	> 50 µM
CSc1ccccc1C#C/C=C\C#Cc1ccccc1N	> 100 µM	> 100 µM		89.6 µM	14.8 µM	50 µM	27.7 µM	26 µM	20.1 µM	4.05 µM	16 µM	5.08 µM		7.58 µM	3.72 µM	19.4 µM	8.93 µM	5.85 µM	4.69 µM	3.97 µM
COc1ccc(-c2nnc(N3CCN(C(=O)CN4CCN(c5ccccc5)CC4)CC3)nc2-c2ccc(OC)cc2)cc1	5.56 µM	> 100 µM		> 100 µM	> 100 µM	> 100 µM	> 100 µM	> 100 µM	> 100 µM	5.15 µM	> 100 µM	2.53 µM		4.85 µM	5.26 µM	> 100 µM	2.85 µM	4.84 µM	4.2 µM	1.89 µM
O=C(Nc1ccc(Cl)c(C(F)(F)F)c1)c1ccc(NC2=C(Cl)C(=O)N(Cc3ccccc3)C2=O)cc1	6.46 µM	7.24 µM		34.8 µM			31.8 µM	42.3 µM	41.6 µM			3.49 µM		17 µM			17.9 µM	19.6 µM	7.04 µM	2.58 µM
O=C1c2cccc3cccc(c23)C(=O)N1CCCCCN1CCN(CCCCCOc2ccc(-c3nc4ccc(N5CCOCC5)cc4[nH]3)cc2)CC1	> 19.9 µM		> 91 µM	5.26 µM	4.21 µM	> 100 µM	> 100 µM	30.8 µM		8.7 µM	> 60.2 µM	0.135 µM	36.5 µM	2.22 µM	1.83 µM	> 100 µM	> 100 µM		16.8 µM	0.372 µM
O=C(Nc1cc(C(F)(F)F)ccc1Cl)c1cccc(NC2=C(Cl)C(=O)N(Cc3ccccc3)C2=O)c1	9.23 µM	> 100 µM		> 100 µM	> 100 µM		> 100 µM	> 100 µM	> 100 µM			4.23 µM		72.8 µM	52.7 µM		32.1 µM	82.6 µM	38.2 µM	3.52 µM
Cc1cc2cc3c(=O)[nH]c(=O)[nH]c3nc2cc1C	> 100 µM	> 100 µM		> 100 µM	> 100 µM	> 100 µM	> 100 µM	> 100 µM	> 100 µM		> 100 µM									
CC(C)(C)[Si](C)(C)OC1C(=O)C[C@H]2CCCC[C@@H]12 (stereo partly drawn)	> 100 µM	> 100 µM	> 100 µM	> 100 µM	> 100 µM	> 100 µM	> 100 µM	> 100 µM	> 100 µM											
CC(=O)N1CCC(=O)/C(=C/c2ccccc2)C1		> 100 µM	> 100 µM	> 100 µM	34.8 µM	> 100 µM	37.6 µM	> 100 µM	> 100 µM											
